Measurements from paper PMC2783032, “Affinity maturation generates greatly improved xyloglucan-specific carbohydrate binding modules” (BMC Biotechnology, 2009).
pKd: −log10 of the molar value.

Columns and labels:
Experiment in all cases: Isothermal titration calorimetry at 25 °C in 20 mM HEPES, pH 8.0, 2 mM CaCl2, 50 uM protein in the cell titrated with oligosaccharide, single-site non-linear regression.
Type in all cases: binding
[1] = biological target: T1, XG-34 (Rhodothermus marinus, UniProt Q7WTN6, E282H/E322D/F286L/F320H/Q321D/W279Y/Y359F); settings: read-out: KA (10^3 M^-1)
T1 construct: CBM4-2 domain scaffold, hexahistidine tag (pET22b, E. coli BL21 (DE3))
Method: (§1) Isothermal titration calorimetry (ITC) measurements were performed at 25°C following standard procedures using a Microcal Omega titration calorimeter (Northampton, MA, USA). XXXG and XLLG (Figure 1) were prepared as previously described. Prior to analysis, the CBM were extensively dialyzed against 20 mM HEPES, pH 8.0 containing 2 mM CaCl2. The same buffer was used to dissolve tamarind seed xyloglucan, XXXG, XLLG and galactose to minimize heats of dilution. 50 μM protein samples were stirred at 300 rpm in a 1.4331 ml reaction cell. Ligands were injected as a single 1 μl aliquot followed by 27 successive 10 μl aliquots at 300 s intervals (2 mM, 7.5 mM or 10 mM XXXG; 1 mM or 5 mM XLLG; 2.5% or 5% w/v xyloglucan; 10 mM galactose). Integrated heat effects were analyzed by non-linear regression using a single-site binding model.

[2] = test system: T2, XG-34/1-X
T2 construct: CBM4-2 domain scaffold, hexahistidine tag (pET22b, E. coli BL21 (DE3))
Method: as §1

[3] = test system: T3, XG-34/2-VI
T3 construct: CBM4-2 domain scaffold, hexahistidine tag (pET22b, E. coli BL21 (DE3))
Method: as §1

In the case of `OC[C@H]1O[C@@H](O[C@H]2[C@@H](OC[C@H]3O[C@@H](O[C@H]4[C@H](O)[C@@H](O)[C@H](O[C@H]5[C@H](O)[C@@H](O)C(O)O[C@@H]5CO)O[C@@H]4CO[C@H]4OC[C@@H](O)[C@H](O)[C@H]4O[C@@H]4O[C@H](CO)[C@H](O)[C@H](O)[C@H]4O)[C@H](O)[C@@H](O)[C@@H]3O[C@@H]3O[C@H](CO[C@H]4OC[C@@H](O)[C@H](O)[C@H]4O)[C@@H](O)[C@H](O)[C@H]3O)OC[C@@H](O)[C@@H]2O)[C@H](O)[C@@H](O)[C@H]1O` (stereo partly shown) [XLLG, xyloglucan oligosaccharide XLLG (galactose-containing nonasaccharide, Gal2Xyl3Glc4)], the pKd [1] was about 3.00.

For `OC[C@H]1OC(O)[C@H](O)[C@@H](O)[C@@H]1O[C@@H]1O[C@H](CO[C@H]2OC[C@@H](O)[C@H](O)[C@H]2O)[C@@H](O[C@@H]2O[C@H](CO[C@H]3OC[C@@H](O)[C@H](O)[C@H]3O)[C@@H](O[C@@H]3O[C@H](CO[C@H]4OC[C@@H](O)[C@H](O)[C@H]4O)[C@@H](O)[C@H](O)[C@H]3O)[C@H](O)[C@H]2O)[C@H](O)[C@H]1O` (stereo partly shown) [XXXG, xyloglucan oligosaccharide XXXG (non-galactosylated heptasaccharide, Xyl3Glc4)], the pKd [1] was about 3.00, the “KA (10^3 M^-1)” value [2] was “~ ≈ 1 M-1” and the “KA (10^3 M^-1)” value [3] was “~ ≈ 1 M-1”.
